{"source": "patent US7060290B1", "about": "“Phosphocholine linked prodrug derivatives” (Supergen, Inc., priority 1999, dated 2006)", "key": {"[1]": {"system": "enzyme on lymphocyte cell membrane that cleaves phosphocholine", "assay": "Lymphocyte cell membrane enzyme that cleaves phosphocholine from other compounds", "assay_type": "cell-based", "settings": "lymphocytes; data not shown", "from_the_text": "The conjugated therapeutic agents will be at least ten times more water soluble then the original alcohol. This will increase their bioavailability and decrease their metabolism to, e.g., the 3-glycoside in the case of steroids, which should be a major excretion pathway. The decreased glycoside formation will be caused by the presence of the phosphoester at that site. The derivative is not expected to be active prior to hydrolysis of the phospholipid group. […] The activity of this enzyme is stimulated ten-fold by TGF-α (data not shown). Without wishing to be bound by theory, it is believed that use of phospholipid-conjugated antibiotics of the present invention will lead to high concentrations of active agents at the site of an infection by the following mechanism. Lymphocytes are attracted to the site of an infection or inflammation where they release TGF-α, which, in turn, stimulates phospholipid hydrolysis in other subtypes. This same process will lead to local release of an active form of the antibiotic from the phospholipid diester conjugate. Because of the response of the enzyme to local concentrations of TGF-α, there should be a correspondingly high local concentration of the antibiotic. This will lead to effective therapy and lower toxicity."}, "[2]": {"system": "cutaneous hypersensitivity immune response", "assay": "DNCB-induced cutaneous contact hypersensitivity (ear swelling) in mice", "assay_type": "in vivo, mice (Balb/c)", "settings": "for Effect on DNCB-induced cutaneous hypersensitivity immune response: 100 μg/day/mouse subcutaneously, twelve-day study, ear rechallenge with 1% DNCB, swelling on days 7–12; for Effect of dexamethasone on the response to the hormone: co-administered with dexamethasone, days 7–12", "experimental": "The effects of DHEA-PC on cutaneous contact hypersensitivity was studied. In this study, mice (Balb/c) were immunologically challenged with DNCB (2% in ethanol) applied to a 2 cm area on the back. The steroid was injected subcutaneously (100 μg/day/mouse) throughout the twelve-day study period. Ears were rechallenged with DNCB (1% in ethanol) on days 7–12 and swelling was measured daily in order to evaluate the effect on the immune system."}, "[3]": {"assay": "First-pass inactivation in the liver after oral administration", "settings": "phosphocholine-derivatized form; stated as believed", "from_the_text": "Subsequently, only a fraction of a percent of the administered drug is biologically available for function. […] When the phosphocholine moiety is removed by an esterase, such as phospholipase C, sphingomyelinase, etc., then the parent compound will be available for binding and function in the target tissue. Glucuronidation would only occur on its return to the liver after removal of the phosphocholine moiety."}, "[4]": {"settings": "J. Med. Chem. 39:2156–2169, 1996; cited from earlier work"}, "[5]": {"assay": "Water/benzene extraction of the tritiated DHEA-phosphocholine reaction product, phases counted by scintillation", "assay_type": "physicochemical", "experimental": "A dehydroepiandrosterone(DHEA)-phosphocholine derivative was synthesized as follows: 1 mg of phosphocholine (calcium salt; Sigma Chemical, St. Louis, Mo.) was dissolved in 0.5 ml of formamide (Cat # S-7503; Lot # 55HO257; Sigma Chemical) and 0.5 ml of pyridine (Cat # P-4036; Lot # 55H1489; Sigma Chemical). 0.025 mCi of (1,2,6,7 ^3H(n)-Dehydroepiandrosterone (Cat # NET814; Lot # 3146097; 89.2 Ci/mmol; Dupont, NEN Products, Boston, Mass.) in 0.025 ml of ethanol was added. The reaction was catalyzed by the addition (as the dry solid) of 5 mg of dicyclohexylcarbodiimide (Cat # D-3129; Lot # 34hO647; Sigma Chemical). The reaction mixture was incubated overnight at room temperature. In the morning, 9 ml of water was added and the mixture extracted 3 times with 10 ml portions of benzene. The benzene extracts were combined and aliquots of both phases were counted in a scintillation counter. The results are set forth below:\nThe aqueous layer was re-extracted with benzene. The second benzene extraction yielded 272 cpm (0.01 M1) as a confirmation.\nFree DHEA starting material would have been extracted quantitatively into benzene with this protocol."}, "[6]": {"system": "neutral sphingomylenase", "assay": "Hydrolysis of DHEA-PC by neutral sphingomylenase", "assay_type": "biochemical", "experimental": "DHEA-phosphocholine (DHEA-PC) was synthesized by sequential reaction of DHEA, choline, and water with phosphorous oxychloride. The synthetic product had the same HPLC retention time and the same mass-spectrum as did the endogenous, actual compound. […] When human serum extracts were analyzed, mass fragments were detected at the same retention time as synthetic material."}}, "note": "“Also recorded” adds a separate entry of the source.", "data": [{"molecule": "TGF-α: factor released by lymphocytes that stimulates phospholipid hydrolysis", "values": [{"measurement": "Stimulation of the activity of the phosphocholine-cleaving enzyme", "setting": "[1]", "result": "ten-fold"}]}, {"molecule": "C[C@]12CC[C@H](O)CC1=CC[C@@H]1[C@@H]2CC[C@]2(C)C(=O)CC[C@@H]12", "note": "[DHEA, dehydroepiandrosterone]", "values": [{"measurement": "Effect on DNCB-induced cutaneous hypersensitivity immune response", "setting": "[2]", "result": "similar, high level response"}, {"measurement": "Effect of dexamethasone on the response to the hormone", "setting": "[2]", "result": "not suppressed by dexamethasone"}]}, {"molecule": "C[C@]12CC[C@H](OS(=O)(=O)O)CC1=CC[C@@H]1[C@@H]2CC[C@]2(C)C(=O)CC[C@@H]12", "note": "[DHEA-sulfate]", "values": [{"measurement": "Effect on DNCB-induced cutaneous hypersensitivity immune response", "setting": "[2]", "result": "similar, high level response"}, {"measurement": "Effect of dexamethasone on the response to the hormone", "setting": "[2]", "result": "not suppressed by dexamethasone"}]}, {"molecule": "C[C@]12CC[C@@H](OP(=O)([O-])OCC[N+](C)(C)C)C[C@H]1CC[C@@H]1[C@@H]2CC[C@]2(C)C(=O)CC[C@@H]12", "values": [{"measurement": "Fraction not metabolized at each pass through the liver", "setting": "[3]", "result": "about 80%"}]}, {"molecule": "O=C1N(Cc2ccc(CO)cc2)[C@H](Cc2ccccc2)[C@H](O)[C@@H](O)[C@@H](Cc2ccccc2)N1Cc1ccc(CO)cc1", "note": "[DMP-323]", "values": [{"measurement": "Aqueous solubility", "setting": "[4]", "result": "low"}]}, {"molecule": "C[C@]12CC[C@H](OP(=O)([O-])OCC[N+](C)(C)C)CC1=CC[C@@H]1[C@@H]2CC[C@]2(C)C(=O)CC[C@@H]12", "note": "[DHEA-PC, DHEA-3-Phosphocholine]", "values": [{"measurement": "Radioactivity in second benzene extraction", "setting": "[5]; 0.01 M1, re-extraction of the aqueous layer with benzene", "result": 272, "unit": "cpm"}, {"measurement": "Radioactivity in aqueous phase", "setting": "[5]; 0.01 ml aliquot, after 3 extractions with 10 ml benzene, 3H label", "result": "10,729 cpm"}, {"measurement": "Radioactivity in benzene phase", "setting": "[5]; 0.01 ml aliquot, combined benzene extracts, 3H label", "result": "1,121 cpm"}, {"measurement": "Phase in which the reaction product stays (hydrophilic character)", "setting": "[5]; water/benzene, free DHEA would have been extracted quantitatively into benzene", "result": "remains in the aqueous phase"}, {"measurement": "Hydrolysis by neutral sphingomylenase", "setting": "[6]", "result": "hydrolyzed"}, {"measurement": "Effect on DNCB-induced cutaneous hypersensitivity immune response", "setting": "[2]", "result": "potentiated dinitrochlorobenzene-induced sensitization; also recorded: enhanced the cutaneous hypersensitivity immune response"}, {"measurement": "Effect of dexamethasone on the response to the hormone", "setting": "[2]", "result": "not suppressed by dexamethasone"}]}]}
